Measured values: PMC6368574, “Probing the Inhibition of Microtubule Affinity Regulating Kinase 4 by N-Substituted Acridones” (Scientific Reports, 2019)
Read-outs that look alike come from different tables or passages of the source.

Experiments:
recombinant MARK4 [1] = biological target: T1, recombinant MARK4 (Homo sapiens, UniProt Q96L34); experiment: Fluorescence binding (quenching, modified Stern-Volmer); conditions: Table S3; fluorescence binding; read-out: Binding affinity (Ka) (converted)
T1 construct: made in house; host or cells: bacterial cells (Luria-Bertani broth, IPTG induction)
T1 sequence (Q96L34 1-752): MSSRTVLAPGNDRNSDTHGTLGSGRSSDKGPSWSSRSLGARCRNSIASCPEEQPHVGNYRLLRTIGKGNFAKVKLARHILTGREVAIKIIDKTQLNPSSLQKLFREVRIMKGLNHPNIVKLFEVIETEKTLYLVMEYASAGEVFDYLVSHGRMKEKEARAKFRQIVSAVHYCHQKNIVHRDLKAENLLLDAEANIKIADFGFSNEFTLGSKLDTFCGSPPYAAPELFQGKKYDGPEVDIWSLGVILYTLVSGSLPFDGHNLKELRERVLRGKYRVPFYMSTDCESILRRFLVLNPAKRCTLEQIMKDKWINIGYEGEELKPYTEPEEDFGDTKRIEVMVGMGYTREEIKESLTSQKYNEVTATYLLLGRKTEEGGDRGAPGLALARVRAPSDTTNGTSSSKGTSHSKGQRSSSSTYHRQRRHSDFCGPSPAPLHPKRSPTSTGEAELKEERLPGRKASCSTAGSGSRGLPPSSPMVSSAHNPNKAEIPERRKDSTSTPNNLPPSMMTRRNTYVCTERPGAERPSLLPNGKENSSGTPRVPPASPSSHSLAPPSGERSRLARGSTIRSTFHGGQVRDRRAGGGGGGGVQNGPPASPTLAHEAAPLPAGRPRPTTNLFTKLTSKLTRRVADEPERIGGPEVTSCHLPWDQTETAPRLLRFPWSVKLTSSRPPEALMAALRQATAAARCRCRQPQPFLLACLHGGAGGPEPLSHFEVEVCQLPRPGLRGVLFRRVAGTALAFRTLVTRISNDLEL
Description: To determine the binding affinities of the synthesized acridones with MARK4, we used fluorescence emission spectra measurements. Protein sample was excited at 280 nm and emission was measured in 300–400 nm range with increasing concentrations of each acridone derivative (0–100 µM). A significant decrease in fluorescence intensity of MARK4 with increasing concentrations of each compound was fitted in the modified Stern-Volmer equation to calculate the binding constant, Ka and the number of binding sites per protein molecule (n). All the synthesized acridones have been screened (Supplementary Fig. S6, S7 and Table S3) and those with the highest affinity have been selected (compounds 5, 7b, 7d, 7f and 7h) for further evaluation (Fig. 3). The binding constants of compound 5, 7b, 7d, 7f and 7h were estimated as 6.3 × 10^4 M^−1, 1.0 × 10^6 M^−1, 1.0 × 10^6 M^−1, 1.9 × 10^6 M^−1, and 3.1 × 10^5 M^−1, respectively (Fig. 3).
Figure 3 Fluorescence binding studies of compound 5, 7b, 7d, 7f and 7h with MARK4. (A) Fluorescence emission spectra of MARK4 (10 µM) with increasing concentrations of the respective compound (5, 7b, 7d, 7f and 7h). Excitation wavelength was fixed at 280 nm and emission was recorded in 300–400 nm range. (B) Modified Stern-Volmer plot obtained from fluorescence quenching of MARK4 by compound 5, 7b, 7d, 7f and 7h, respectively. It was used to calculate binding affinity (Ka) and number of binding sites (n).
Binding affinities of synthesized acridone derivatives with recombinant MARK4 was carried out by observing the fluorescence intensity change of emission spectrum of MARK4 by following our previously published protocol[44],[45]. Each titration of protein was performed in triplicates and the average was taken for analysis. A significant decreased in fluorescence intensity of protein with increase in the concentration of acridone derivatives were used as the criteria for deducing the binding constant (Ka) as well as number of binding sites (n) present on the protein molecule using the modified Stern-Volmer equation[46]:1 log(Fo−F)/F=logKa+nlog[L] where, Fo = Fluorescence intensity of native protein, F = Fluorescence intensity of protein in the presence of ligand, Ka = Binding constant, n = number of binding sites, L = concentration of ligand. The values for Ka and n were derived from the intercept and slope, respectively.

MCF-7 cells = experiment: MTT cell viability assay, MCF-7; assay type: cell-based; conditions: Homo sapiens, MCF7; Table S2; MTT; read-out: IC50 (µM) MCF-7
Description: (§1) Initially, all synthesized acridone derivatives were evaluated for their cytotoxicity potential on MCF-7, HepG2 and HEK293 cell lines by MTT assay. These synthesized acridone derivatives were screened in the concentration range of 0–200 µM, for 24 and 48 h. […] It was also interesting that in the studied […] concentration range these compounds don’t show considerable cytotoxicity towards HEK293 cell lines. […] Thus, compounds 5, 7b, 7d, 7f and 7h were taken for further cell based studies such as apoptosis and reactive oxygen species (ROS) production.
(§2) To study the effect of synthesized acridone derivatives on cell viability and proliferation, a standard MTT method was carried out. Cells were plated (8000–9000/well) in a 96-well plate and incubated overnight. On the next day, cells were treated with increasing concentrations (0.1–80 μM) of synthesized acridone derivatives in a final volume of 200 µl for 48 h at 37 °C in a humidified chamber. At the end of treatment time point, 20 µl of MTT solution (from 5 mg/ml stock solution in phosphate buffer saline, pH 7.4) was added to each well and incubated further for 4–5 h at 37 °C in the CO2 incubator. After stipulated time the supernatant was aspirated and the colored formazan crystal produced as a result of MTT reduction was dissolved in 100 µl of DMSO. The absorbance (A) of colored product was then measured at 570 nm on a multiplate ELISA reader (BioRad). The percentage of viable cells was calculated and used to estimate the IC50 (50% inhibitory concentration) values for each acridone derivative. For cell proliferation studies paclitaxel has been taken as positive control.

HepG2 cells = experiment: MTT cell viability assay, HepG2; assay type: cell-based; conditions: Homo sapiens, Table S2
Description: as §1, §2

recombinant MARK4 [2] = biological target: T1, recombinant MARK4; experiment: ATPase enzyme inhibition assay (Malachite Green); assay type: biochemical
Description: To evaluate the inhibition activity of synthesized acridone derivatives against recombinant MARK4, ATPase enzyme inhibition assay was performed (Table S3). […] Our studies were initiated by replacing the ester group of 5 with sterically and electronically diverse amines affording the corresponding amides 7a–j, in order to establish favorable interactions with residues Ala135, Val70, Asp196 and/or Glu182. […] In this case, the docking studies indicate a better fit of 7h compared with 7g in the active site of MARK4 with a binding energy of −9.5 kcal/mol and a stronger predicted hydrogen bond with Ala135 (3.06 Å for 7h, 3.19 Å for 7g).
Enzyme activity of MARK4 was evaluated with the help of standard Malachite Green (Biomol Green reagent, Enzo Life Sciences) microtitre-plate assay as described earlier. Estimated amount of MARK4 (200 ng) and 20 µM ATP as a substrate were incubated for 10–15 min at 25 °C with increasing concentrations (0–20 µM) of synthesized acridone derivatives, in 20 mM Tris buffer, pH 8.0. Reaction was terminated by the adding 100 µl of Biomol Green reagent and absorbance of final reaction products was recorded at 620 nm in a multiplate ELSIA reader (BioRad). In order to quantify the hydrolyzed phosphate, inorganic phosphate standard curve were prepared from the phosphate standard solutions as supplied by the manufacturer (Biomol Green reagent, Enzo Life Sciences). All data points represent triplicate measurements from at least three independent experiments.

HEK293 cells = experiment: MTT cell viability assay, HEK293; assay type: cell-based; conditions: Homo sapiens, Table S2
Description: as §1, §2

MARK2 = tested on: MARK2; parameters: method as in PMID 21984823; conditions: cited from earlier work
[3] = ATPase inhibition, 20 µM ATP, read-out: IC50 against MARK4
[4] = Table S3, read-out: IC50, (µM), for MARK4 Inhibition

Row | Structure (SMILES) | Kd (recombinant MARK4 [1]) | IC50 (MCF-7 cells) | IC50 (HepG2 cells) | IC50 (recombinant MARK4 [2]; [3]) | melting point | MARK4 inhibition, comparison in words (recombinant MARK4 [2]; ATPase inhibition) | IC50 (recombinant MARK4 [2]; [4]) | IC50 (HEK293 cells) | IC50 (MARK2)
1 | CCOC(=O)c1cnc(NC(=O)Cn2c3ccccc3c(=O)c3ccccc32)s1 [Compound 30199] |  |  |  |  |  |  |  |  | < 10 µM
2 | N#Cc1ccc(NC(=O)Cn2c3ccccc3c(=O)c3ccccc32)cc1 [Compound 30197] |  |  |  |  |  |  |  |  | < 10 µM
3 | COc1ccc2c(c1)c(=O)c1ccccc1n2CC(=O)Nc1cccc(C(F)(F)F)c1 [Compound 30019] |  |  |  |  |  |  |  |  | < 10 µM
4 | O=C(Cn1c2ccccc2c(=O)c2ccccc21)Oc1ccccc1F [Compound 30195] |  |  |  |  |  |  |  |  | < 10 µM

Continued, in another order:

Row | Kd (recombinant MARK4 [1]) | IC50 (MCF-7 cells) | IC50 (HepG2 cells) | IC50 (recombinant MARK4 [2]; [3]) | melting point | MARK4 inhibition, comparison in words (recombinant MARK4 [2]; ATPase inhibition) | IC50 (recombinant MARK4 [2]; [4]) | Structure (SMILES) | IC50 (HEK293 cells) | IC50 (MARK2)
5 | 1580 µM | 14.1 µM | 25.1 µM | > 20 µM |  |  |  | COC(=O)c1ccc(NC(=O)Cn2c3ccccc3c(=O)c3cc(C)ccc32)cc1 [Compound 7i, Methyl 4-(2-(2-methyl-9-oxoacridin-10(9H)-yl)acetamido)benzoate] | > 200 µM | 
6 | 501 µM | 11.9 µM | 19.4 µM |  | 131 to 141 °C | much weaker inhibitor | > 20 µM | Cc1ccc2c(c1)c(=O)c1ccccc1n2CC(=O)N(C)Cc1ccccc1 [Compound 7c, N-benzyl-N-methyl-2-(2-methyl-9-oxoacridin-10(9 H)-yl)acetamide] | > 200 µM | 
7 | 1580 µM | 13.8 µM | 23.8 µM |  | 290 to 293 °C | less potent than 7b | > 20 µM | Cc1ccc2c(c1)c(=O)c1ccccc1n2CC(=O)Nc1ccccc1 [Compound 7e, 2-(2-Methyl-9-oxoacridin-10(9H)-yl)-N-phenylacetamide] | > 200 µM | 
8 | 501 µM | 16.3 µM | 24.4 µM | > 20 µM | 306 to 309 °C |  |  | CC(=O)c1ccc(NC(=O)Cn2c3ccccc3c(=O)c3cc(C)ccc32)cc1 [Compound 7j, N-(4-acetylphenyl)-2-(2-methyl-9-oxoacridin-10(9H)-yl)acetamide] | > 200 µM | 
9 | 501 µM | 12.3 µM | 24.3 µM |  |  |  | > 20 µM | Cc1ccc2c(c1)c(=O)c1ccccc1n2CC(=O)N1CCOCC1 [Compound 7a, 2-Methyl-10-(2-morpholino-2-oxoethyl)acridin-9(10H)-one] | > 200 µM | 
10 | 158 µM | 14.3 µM | 21.2 µM | > 20 µM | 282 to 286 °C |  | > 20 µM | COc1ccc(NC(=O)Cn2c3ccccc3c(=O)c3cc(C)ccc32)cc1 [Compound 7g, N-(4-methoxyphenyl)-2-(2-methyl-9-oxoacridin-10(9H)-yl)acetamide] | > 200 µM | 
